In patent US12624031B2, “Inhibitors of ubiquitin specific peptidase 22 (USP22) and uses thereof for treating diseases and disorders” (Northwestern University, priority 2022, dated 2026):

Experiments:
[1] = molecular target: human GST-USP22 with Sgf11, Sgf73 1-105 and Sus1 (Homo sapiens, UniProt Q9UPT9); assay: in vitro USP22 deubiquitination assay (re-constructed deubiquitination module); assay type: biochemical; conditions: customized deubiquitination assay, human GST-USP22 with Sgf11, Sgf73 1-105, Sus1; read-out: IC50 in suppressing USP22 in vitro catalytic activity
Procedure: (A) The chemical structure of S02-S106 11-((4-cyanophenyl)amino)-7,8,9,10-tetrahydrobenzo(4,5)imidazole[1,2-b]isoquinoline-6-carbonitrile, (B & C) The efficacy of USP22i-S02 analogs in inhibiting USP22 catalytic activity was determined in vitro. The representative data from a triplicate analysis of S02-S106 with S02 as a control are shown (B). The IC50 of USP22i-S02 analogs in suppressing USP22 in vitro catalytic activity are shown (C). NA, not available.
We purchased human recombinant Sgf11 and Sgf73 1-105 and Sus1 proteins from R&D Systems Inc, and re-constructed the deubiquitination activity with our human GST-USP22. The USP22 customized deubiquitination was optimized and used for in vitro screening the activity of synthetic USP22i-s02 analogs with the USP22i-s02 as a control (FIG. 12).

[2] = system: PD-L1 expression in A549 cells; assay: PD-L1 expression in A549 cells by flow cytometry; assay type: cell-based, human; conditions: Homo sapiens; A549 cells, 48 hours; unit inferred; read-out: IC50 inhibition of PD-L1 expression
Procedure: FIG. 13: The effects of USP22i-S02-S106 on suppression of PD-L1 expression on human lung adenocarcinoma cells. Human […] lung adenocarcinoma A549 cells were treated with S02-S106 or its lead compound S02 for 48 hours. The expression levels of PD-L1 were determined by flow cytometry. (A) Representative flow data from A549 cells treated with 2 μM S02-S106 or with 15 μM S02 are shown. DMSO treated cells were used as an untreated control and USP22 CRISPR knockout A549 cells were used as a positive control. (B) The dose-dependent inhibition of PD-L1 expression in A549 cells by S02-S106 with USP22i-S02 as a control. Data were normalized with PD-L1 expression levels in USP22-KO cells as 100% of USP22 inhibition as shown in A. (C) Inhibition of PD-L1 expression in WT and USP22-null A549 cells by S02-S106.
We then used PD-L1 expression level as a measurement to evaluate the inhibitory efficacy of USP22 by S02-S106.
To determine the specificity of USP22i-S02-S106, we treated the WT and USP22-null lung cancer cells.

[3] = system: Foxp3 in iTreg cells; assay: in vitro dose response study in WT and Usp22-null iTreg cells; assay type: cell-based, murine
Procedure: (§1) FIG. 6: Usp22i-S02 halts Usp22-mediated Foxp3 deubiqutination. A, Graphical representation of Foxp3 MFI change in WT versus 22KO iTreg cells treated with various doses of Usp22i-S02 (n=3). B, Representative histogram of Foxp3 MFI level in iTreg cells as Usp22 inhibitor concentration increases from 0-20 μg/mL. C, Cell survival of iTreg cells treated with various doses of Usp22i-S02 (n=3). D, FOXP3 and USP22 protein level in WT and 22KO mice treated with 10 μg/mL Usp22i-S02. E-F, Graphical and representative data of Foxp3 MFI of human Treg cells treated with various doses of Usp22i-S02 (n=3). G, Graphical representation of Foxp3 MFI in WT, Usp21-null, and Usp22-null Treg cells treated with Usp22i-S02 at 10 μg/mL (n=3). H, FOXP3 and USP22 protein degradation of cycloheximide (10 μg/mL) treated iTreg cells with or without the addition of 10 μg/mL of Usp22i-S02. I-J, Endogenous DUB assay IP in iTreg cells of USP22 with FOXP3 under increasing concentrations of Usp22i-S02. K, Foxp3 mRNA level in iTreg cells as Usp22 inhibitor concentration increases from 0-20 μg/mL (n=3). L, FOXP3 and USP22 level in WT iTreg cells with or without 20 μg/mL Usp22 inhibitor treated with 20 μM MG132. M, Graphical representation of the percentage of decrease of Foxp3 MFI in either WT or Usp22-null nTreg cells placed in low glucose conditions with or without the addition of 10 μg/mL of Usp22i-S02 (n=7-8). N, Graphical representation of the percentage of decrease of Foxp3 MFI in WT nTreg cells placed in hypoxic or low amino acid conditions with or without the addition of 10 μg/mL of Usp22i-S02 (n=3-5). G, Two-tailed unpaired t-test comparing within groups was performed to determine statistical significance. K, One-way ANOVA with Dunnet's multiple comparisons between rows relative to control was performed to determine statistical significance. M-N, Two-way ANOVA with Sidak's multiple comparisons between rows was performed to determine statistical significance. All data are presented as mean±stdev. NS, not significant. *P<0.05, **P<0.01, ***P<0.001, ****P<0.0001.
After initial screening, we ran an in vitro dose response study on compound S02, dubbed Usp22i-S02, in both WT and Usp22-null iTreg cells (FIG. 6A-C).

[4] = system: Foxp3 in human Treg cells; assay: Foxp3 MFI of human Treg cells; assay type: cell-based; conditions: low doses
Procedure: as §1, with “N, Graphical representation of the percentage of decrease of Foxp3 MFI in WT nTreg cells placed in hypoxic or low amino acid conditions with or without the addition of 10 μg/mL of Usp22i-S02 (n=3-5). G, Two-tailed unpaired t-test comparing within groups was performed to determine statistical significance. K, One-way ANOVA with Dunnet's multiple comparisons between rows relative to control was performed to determine statistical significance. M-N, Two-way ANOVA with Sidak's multiple comparisons between rows was performed to determine statistical significance. All data are presented as mean±stdev. NS, not significant. *P<0.05, **P<0.01, ***P<0.001, ****P<0.0001.” left out

[5] = system: LLC1 cells; assay: LLC1 cell counts, viability and growth in vitro; assay type: cell-based; conditions: 24 hours various concentrations; 10 ug/ml for 7 days
Procedure: FIG. 8: Usp22i-S02 inhibits tumor growth in vitro and in vivo. A, In vitro counts of LLC1 after treatment with Usp22i-S02 under various concentrations for 24 hours (n=2). B, In vitro viability of LLC1 after treatment with Usp22i-S02 under various concentrations for 24 hours (n=2). C, In vitro relative growth of LLC1 cells treated with 10 ug/ml of Usp22i-S02 relative to DMSO treated control for 7 days via OD600 (n=4). D, Growth curve of 1 million subcutaneously injected LLC1 cells into RAG−/− mice treated for 3 days Usp22i-S02 relative to DMSO control injections at day 15 of tumor growth (n=4). C-D, Two-way ANOVA with Sidaks's multiple comparisons between rows relative to control was performed to determine statistical significance. All data are presented as mean±stdev. NS, not significant. *P<0.05, **P<0.01, ***P<0.001, ****P<0.0001.
As Usp22 is also an important oncogene, we were interested in the potential dual-therapeutic function of Usp22i-S02.

Sequence of human GST-USP22 with Sgf11, Sgf73 1-105 and Sus1 (Q9UPT9 whole entry): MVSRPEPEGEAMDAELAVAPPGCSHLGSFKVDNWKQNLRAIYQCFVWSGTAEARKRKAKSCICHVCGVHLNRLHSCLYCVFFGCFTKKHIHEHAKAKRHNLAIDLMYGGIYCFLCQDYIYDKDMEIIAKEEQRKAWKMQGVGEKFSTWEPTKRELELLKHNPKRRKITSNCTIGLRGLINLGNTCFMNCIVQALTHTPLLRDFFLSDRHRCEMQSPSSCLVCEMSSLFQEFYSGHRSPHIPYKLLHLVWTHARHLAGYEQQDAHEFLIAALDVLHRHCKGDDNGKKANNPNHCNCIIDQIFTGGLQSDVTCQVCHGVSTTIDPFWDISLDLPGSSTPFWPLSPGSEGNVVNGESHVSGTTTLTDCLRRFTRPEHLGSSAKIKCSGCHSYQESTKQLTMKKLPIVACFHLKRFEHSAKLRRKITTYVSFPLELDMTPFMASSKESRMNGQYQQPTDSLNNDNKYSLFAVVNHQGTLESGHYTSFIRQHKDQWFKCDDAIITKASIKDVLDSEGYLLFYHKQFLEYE
Sequence of human GST-USP22 with Sgf11, Sgf73 1-105 and Sus1 (Q14CW9 whole entry partner): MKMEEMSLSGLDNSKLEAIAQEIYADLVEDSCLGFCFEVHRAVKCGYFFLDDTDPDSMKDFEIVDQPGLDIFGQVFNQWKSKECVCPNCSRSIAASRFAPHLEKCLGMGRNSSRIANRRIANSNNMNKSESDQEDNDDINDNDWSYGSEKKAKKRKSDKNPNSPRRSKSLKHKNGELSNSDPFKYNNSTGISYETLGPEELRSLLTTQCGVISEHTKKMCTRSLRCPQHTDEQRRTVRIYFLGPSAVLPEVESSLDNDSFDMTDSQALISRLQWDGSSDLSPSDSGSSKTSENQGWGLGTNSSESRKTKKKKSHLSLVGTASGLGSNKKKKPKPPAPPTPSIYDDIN
Sequence of human GST-USP22 with Sgf11, Sgf73 1-105 and Sus1 (O15265 1-105 partner limits assumed): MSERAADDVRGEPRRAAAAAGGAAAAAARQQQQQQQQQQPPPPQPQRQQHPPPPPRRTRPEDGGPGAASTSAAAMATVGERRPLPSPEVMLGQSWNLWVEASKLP
Sequence of human GST-USP22 with Sgf11, Sgf73 1-105 and Sus1 (Q9NPA8 whole entry partner): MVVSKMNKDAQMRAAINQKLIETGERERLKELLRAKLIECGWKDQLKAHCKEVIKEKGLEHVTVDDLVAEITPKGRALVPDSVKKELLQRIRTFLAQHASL

N#Cc1c2c(c(Nc3ccccc3)n3c1nc1ccccc13)CCCC2 [USP22i-S02, 11-anilino-7,8,9,10-tetrahydrobenzimidazo[1,2-b]isoquinoline-6-carbonitrile]
IC50 [1]: ~4.7 µM | IC50 [2]: 13.7 µM | viability of iTreg cells ([3]; 10 μg/mL): little effect on viability | FOXP3 degradation with MG132 ([3]; 20 μg/mL inhibitor, 20 μM MG132): halted by MG132 protease inhibition | FOXP3 degradation in cycloheximide treated iTreg cells ([3]; CHX 10 μg/mL, 10 μg/mL inhibitor): enhanced FOXP3 degradation | effect on iTreg cells lacking Usp21 ([3]; Usp21-null, 10 μg/mL): full effect | FOXP3 levels in murine Treg cells lacking Usp22 ([3]; Usp22-null, in vivo and in vitro): minimal effect on FOXP3 levels | Foxp3 under glucose starvation in Treg cells lacking Usp22 ([3]; Usp22-null, low glucose, 10 μg/mL): no effect on Foxp3 | Foxp3 stability under glucose starvation ([3]; WT Treg cells, low glucose, 10 μg/mL): significantly diminished Foxp3 stability | Foxp3 MFI and protein level ([3]; WT iTreg cells, 10 μg/mL): decreases in Foxp3 MFI and protein level comparable to Usp22-null iTreg cells | Foxp3 stability under hypoxic and amino acid starvation conditions ([3]; WT nTreg cells, 10 μg/mL): reduces Foxp3 stability | Foxp3 transcription ([3]; iTreg cells, 0-20 μg/mL): decreased Foxp3 transcription | FOXP3 ubiquitination ([3]; iTreg cells, endogenous DUB assay IP): increased FOXP3 ubiquitination | Foxp3 MFI in human Treg cells [4]: significantly decreased Foxp3 MFI | viability of human Treg cells [4]: little effect to cell viability | LLC1 tumor cell counts, viability and growth in vitro [5]: decreased tumor cell counts, viability, and growth
